Experimental data published in ChEMBL document CHEMBL4257563, “Recent Advances in the Medicinal Chemistry of Liver X Receptors” (J Med Chem, 2018).
Where a chain is given by its changes, count along the chain named.

Columns and labels:
[1] = biological target: T1, Oxysterols receptor LXR-beta (Homo sapiens, UniProt P55055); assay: Agonist activity at human full length LXRbeta expressed in African green monkey CV-1 cells co-expressing human pCMX/RXRalpha after 20 hrs by luciferase reporter gene assay; assay type: cell-based
T1 sequence (P55055 whole entry): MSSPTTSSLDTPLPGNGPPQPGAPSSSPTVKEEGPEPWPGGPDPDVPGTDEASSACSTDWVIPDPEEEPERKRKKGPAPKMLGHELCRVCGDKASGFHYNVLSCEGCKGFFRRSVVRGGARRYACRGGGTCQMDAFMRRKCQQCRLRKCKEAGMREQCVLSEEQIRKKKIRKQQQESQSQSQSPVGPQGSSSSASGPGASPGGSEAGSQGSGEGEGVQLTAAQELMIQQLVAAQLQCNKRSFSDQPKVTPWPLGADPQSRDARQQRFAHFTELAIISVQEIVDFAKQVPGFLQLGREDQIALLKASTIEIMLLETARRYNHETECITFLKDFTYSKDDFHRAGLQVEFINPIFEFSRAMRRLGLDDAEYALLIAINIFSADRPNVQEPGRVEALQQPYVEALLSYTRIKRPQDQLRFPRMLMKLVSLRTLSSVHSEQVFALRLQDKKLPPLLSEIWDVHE

[2] = Tmax in cynomolgus monkey at 1 mg/kg, po by LC-MS analysis; assay type: ADME, organism-based, Macaca fascicularis; details: in vivo
[3] = Plasma concentration in cynomolgus monkey at 1 mg/kg, po after 48 hrs by LC-MS analysis; assay type: ADME, organism-based, Macaca fascicularis
Cynomolgus monkey [4] = assay: In vivo transactivation of LXRbeta in cynomolgus monkey assessed as induction of ABCG1 expression at 1 mg/kg, po by PCR analysis; assay type: functional, Macaca fascicularis
[5] = Cmax in cynomolgus monkey at 1 mg/kg, po by LC-MS analysis; assay type: ADME, organism-based, Macaca fascicularis; design: dose 1 mg/kg, route oral; details: in vivo
Cynomolgus monkey [6] = assay: Increase in plasma triglycerides in orally dosed cynomolgus monkey; assay type: functional, Macaca fascicularis
Cynomolgus monkey [7] = assay: In vivo transactivation in po dosed cynomolgus monkey blood assessed as induction ABCG1 mRNA expression after 24 hrs by PCR analysis; assay type: functional, organism-based; details: Macaca fascicularis
Cynomolgus monkey [8] = assay: Increase in plasma LDL cholesterol in orally dosed cynomolgus monkey; assay type: functional, Macaca fascicularis
[9] = biological target: T2, Oxysterols receptor LXR-alpha (Homo sapiens, UniProt Q13133); assay: Agonist activity at human LXRalpha expressed in HEK293 cells after 24 hrs by One-Glo luciferase reporter gene assay; assay type: cell-based
T2 sequence (Q13133 whole entry): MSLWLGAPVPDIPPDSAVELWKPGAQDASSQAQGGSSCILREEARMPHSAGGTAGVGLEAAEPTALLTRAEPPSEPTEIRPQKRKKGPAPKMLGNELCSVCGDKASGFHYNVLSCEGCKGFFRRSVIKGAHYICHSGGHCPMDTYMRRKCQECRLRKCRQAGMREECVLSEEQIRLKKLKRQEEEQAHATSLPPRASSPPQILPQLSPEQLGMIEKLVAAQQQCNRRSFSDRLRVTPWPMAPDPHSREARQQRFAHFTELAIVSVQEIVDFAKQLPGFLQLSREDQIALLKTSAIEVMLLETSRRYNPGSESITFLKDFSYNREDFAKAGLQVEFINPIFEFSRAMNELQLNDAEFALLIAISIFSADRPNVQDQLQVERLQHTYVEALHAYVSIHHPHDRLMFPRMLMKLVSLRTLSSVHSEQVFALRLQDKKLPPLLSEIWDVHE

[10] = biological target: T3, Oxysterols receptor LXR-alpha (Homo sapiens) (UniProt Q13133); assay: Agonist activity at human LXRalpha expressed in HEK293 cells after 24 hrs by One-Glo luciferase reporter gene assay relative to TO901317; assay type: cell-based
T3 sequence (whole entry): T2 sequence (Q13133 whole entry)

[11] = biological target: T1, Oxysterols receptor LXR-beta; assay: Agonist activity at GAL4-tagged human LXRbeta LBD expressed in HEK293T cells after 12 hrs by luciferase reporter gene assay; assay type: cell-based
[12] = biological target: T2, Oxysterols receptor LXR-alpha; assay: Agonist activity at human LXRalpha-LBD (182 to 447 amino acids) expressed in HEK293T cells by luciferase reporter gene assay; assay type: cell-based
[13] = biological target: T4, Oxysterols receptor LXR-beta (Homo sapiens) (UniProt P55055); assay: Agonist activity at human GAL-tagged LXRbeta-LBD F271A mutant transfected in HEK293T cells assessed as co-repressor recruitment using SMRT as co-repressor by TR-FRET assay relative to TO901317; assay type: cell-based
T4 sequence (whole entry): T1 sequence (P55055 whole entry)

[14] = test system: T5, Oxysterols receptor LXR-alpha (Homo sapiens), Q13133 [R305G]; assay: Agonist activity at human GAL-tagged LXRbeta-LBD R305G mutant transfected in HEK293T cells assessed as co-activator recruitment using NCoR as co-repressor by TR-FRET assay relative to TO901317; assay type: cell-based
T5 sequence (whole entry): T2 sequence (Q13133 whole entry) with R305G

[15] = biological target: T4, Oxysterols receptor LXR-beta (Homo sapiens); assay: Agonist activity at human GAL-tagged LXRbeta-LBD F271A mutant transfected in HEK293T cells assessed as co-activator recruitment using D22 as co-activator by TR-FRET assay relative to TO901317; assay type: cell-based
[16] = biological target: T1, Oxysterols receptor LXR-beta; assay: Agonist activity at human LXRbeta-LBD (196 to 461 amino acids) expressed in HEK293T cells by luciferase reporter gene assay; assay type: cell-based
[17] = test system: T5, Oxysterols receptor LXR-alpha (Homo sapiens), Q13133 [R305G]; assay: Agonist activity at human GAL-tagged LXRbeta-LBD R305G mutant transfected in HEK293T cells assessed as co-activator recruitment using TRAP220 as co-activator by TR-FRET assay relative to TO901317; assay type: cell-based
Mus musculus = assay: Reduction in hepatic collagen deposition in mouse at 30 mg/kg, ip for 30 days; assay type: functional; details: 720 h
[18] = biological target: T1, Oxysterols receptor LXR-beta; assay: Inverse agonist activity at LXRbeta (unknown origin) expressed in HEK293 cells 24 hrs by Dual-Glo luciferase assay; assay type: cell-based
[19] = biological target: T2, Oxysterols receptor LXR-alpha; assay: Inverse agonist activity at LXRalpha (unknown origin) expressed in HEK293 cells 24 hrs by Dual-Glo luciferase assay; assay type: cell-based
Homo sapiens = organism: Homo sapiens; assay: Toxicity in human assessed as decrease in mean neutrophil count at 15 mg after 7 days relative to baseline control; assay type: organism-based; design: scale not given: the % may be the effect or the level left; details: in vivo, 168 h

Molecule CS(=O)(=O)c1cccc(-c2ccc(-c3cc(C(F)(F)F)nn3-c3ccccc3Cl)s2)c1 has an EC50 [1] of 0.108 µM.
In the case of CC(C)(O)c1cn(-c2ccc(-c3cccc(S(C)(=O)=O)c3)cc2)c(C(C)(C)c2ccccc2Cl)n1 [BMS-779788], the Tmax [2] is reported as 2 h, the concentration at 48 h [3] is reported as 0.154 µM and the “fold change (FC)” value (Cynomolgus monkey [4]) is reported as 4.7. For the same molecule, the Cmax [5] was 2.23 µM, the “fold change (FC)” value (Cynomolgus monkey [6]) was 29 and the EC50 (Cynomolgus monkey [7]) was 0.61 µM. For the same molecule, the “fold change (FC)” value (Cynomolgus monkey [8]) was 12.
For C[C@H](CCC(=O)N(C)C)[C@H]1CC[C@H]2[C@@H]3CC=C4C[C@@H](O)CC[C@]4(C)[C@H]3CC[C@]12C, the EC50 [9] was 0.422 µM and the Emax [10] was 45%.
For Cc1c(C(=O)OC(C)C(=O)N2CCNC2=O)oc2cc(F)ccc12 (stereo not drawn), the EC50 [11] was 0.72 µM.
CN(CC(=O)Nc1ccc(F)c(F)c1F)C(=O)c1ccc2c(c1)OCCO2 showed an EC50 [12] of 0.15 µM, an Activity [13] of 23% and an Activity [14] of 31%. For the same molecule, the Activity [15] was 13%, the EC50 [16] was 0.53 µM and the Activity [17] was 18%.
Work on CCOC(=O)c1ccc(CN(Cc2ccc(-c3cccc(S(C)(=O)=O)c3)cc2)S(=O)(=O)c2c(C)cc(C)cc2C)o1 yielded an inhibition in vivo at 30 mg/kg (Mus musculus) of 90%, an IC50 [18] of 0.043 µM and an IC50 [19] of 0.214 µM.
For COC1CCN(C(=O)CC[C@@H](C)[C@H]2CC[C@H]3[C@@H]4CC=C5C[C@@H](O)CC[C@]5(C)[C@H]4CC[C@]23C)CC1, the EC50 [9] was 0.23 µM and the Emax [10] was 58%.
In the case of CC(C)(O)c1cn(-c2ccc(-c3cc(F)c(CO)c(S(C)(=O)=O)c3)cc2F)c(C(C)(C)c2c(Cl)cccc2Cl)n1 [BMS-852927], the Activity (Homo sapiens) is reported as 47%.
